Activity calls are given as the source filed them. No rule for the calls is given here.
tested on: Staphylococcus aureus; test: Antibacterial activity against tarO deficient Staphylococcus aureus RN4220 assessed as growth inhibition at 100 uM after 12 hrs by optical density plate reader method; format: functional; settings: not given

SMILES | Activity
CCOC(=O)C1CCCN(c2nc3c(S(=O)(=O)c4ccc(CC)cc4)nnn3c3ccc(Cl)cc23)C1 (centres undefined) | inactive
O=C(Nc1ccc(Nc2nc3c(S(=O)(=O)c4ccc(Br)cc4)nnn3c3ccccc23)cc1)c1ccco1 | inactive
CC(=O)c1ccccc1N1CCN(c2nc3c(S(=O)(=O)c4ccccc4)nnn3c3ccc(Cl)cc23)CC1 | inactive
COc1ccc(Nc2nc3c(S(=O)(=O)c4ccccc4)nnn3c3ccc(Cl)cc23)c(OC)c1 | inactive
COc1ccccc1CNc1nc2c(S(=O)(=O)c3ccc(C)c(C)c3)nnn2c2ccc(Cl)cc12 | inactive
CN(Cc1ccccc1)c1nc2c(S(=O)(=O)c3ccccc3)nnn2c2ccccc12 | inactive
CSc1cccc(Nc2nc3c(S(=O)(=O)c4ccccc4)nnn3c3ccc(Cl)cc23)c1 | inactive
O=S(=O)(c1ccccc1)c1nnn2c1nc(Nc1ccccc1)c1cc(Cl)ccc12 | inactive
O=C1CCCN1CCCNc1nc2c(S(=O)(=O)c3ccc(Br)cc3)nnn2c2ccccc12 | inactive
O=S(=O)(c1ccccc1)c1nnn2c1nc(NCc1ccccc1)c1cc(Cl)ccc12 | inactive
O=S(=O)(c1ccc(Cl)cc1)c1nnn2c1nc(Cl)c1ccccc12 | inactive
Cc1ccc(Nc2nc3c(S(=O)(=O)c4ccccc4)nnn3c3ccc(Cl)cc23)c(C)c1 | inactive
Cc1ccc(CNc2nc3c(S(=O)(=O)c4ccc(C)c(C)c4)nnn3c3ccc(Cl)cc23)cc1 | inactive
CC(=O)c1ccc(Nc2nc3c(S(=O)(=O)c4ccc(C)c(C)c4)nnn3c3ccccc23)cc1 | inactive
Cc1ccc(S(=O)(=O)c2nnn3c2nc(NCCC(C)C)c2cc(Cl)ccc23)cc1C | inactive
CC(=O)NCCNc1nc2c(S(=O)(=O)c3ccc(C)c(C)c3)nnn2c2ccc(Cl)cc12 | inactive
CC(=O)NCCNc1nc2c(-c3ccccc3)nnn2c2ccccc12 | inactive
Cc1ccc(S(=O)(=O)c2nnn3c2nc(NC(C)C)c2cc(Cl)ccc23)cc1C | inactive
CCc1ccc(S(=O)(=O)c2nnn3c2nc(NCc2cccc(OC)c2)c2cc(Cl)ccc23)cc1 | inactive
CCc1ccc(S(=O)(=O)c2nnn3c2nc(NCCNC(C)=O)c2cc(Cl)ccc23)cc1 | inactive
Cc1ccc(CNc2nc3c(S(=O)(=O)c4cc(C)ccc4C)nnn3c3ccccc23)cc1 | inactive
CCc1ccc(S(=O)(=O)c2nnn3c2nc(Nc2cc(OC)cc(OC)c2)c2cc(Cl)ccc23)cc1 | inactive
O=S(=O)(c1ccccc1)c1nnn2c1nc(N1CCCC1)c1cc(Cl)ccc12 | inactive
O=S(=O)(c1ccccc1)c1nnn2c1nc(N1CCN(c3ccccc3)CC1)c1cc(Cl)ccc12 | inactive
CCN(Cc1ccccc1)c1nc2c(S(=O)(=O)c3ccccc3)nnn2c2ccc(Cl)cc12 | inactive
CCc1ccc(S(=O)(=O)c2nnn3c2nc(NCCC(C)C)c2cc(Cl)ccc23)cc1 | inactive

SMILES | Activity
COc1cc(Nc2nc3c(S(=O)(=O)c4ccccc4)nnn3c3ccc(Cl)cc23)cc(OC)c1 | inactive
Cc1ccc(C)c(N2CCN(c3nc4c(S(=O)(=O)c5ccccc5)nnn4c4ccc(Cl)cc34)CC2)c1 | inactive
CCc1ccc(S(=O)(=O)c2nnn3c2nc(N2CCC(C(N)=O)CC2)c2cc(Cl)ccc23)cc1 | inactive
Cc1ccc(S(=O)(=O)c2nnn3c2nc(N2CCN(c4cccc(C)c4C)CC2)c2ccccc23)cc1C | inactive
COc1ccccc1CNc1nc2c(S(=O)(=O)c3ccccc3)nnn2c2ccc(Cl)cc12 | inactive
COc1ccc(Nc2nc3c(S(=O)(=O)c4ccccc4)nnn3c3ccc(Cl)cc23)cc1OC | inactive
CC1CCN(c2nc3c(S(=O)(=O)c4ccccc4)nnn3c3ccc(Cl)cc23)CC1 | inactive
c1ccc(-c2nnn3c2nc(N2CCOCC2)c2ccccc23)cc1 | inactive
COCCCNc1nc2c(S(=O)(=O)c3ccc(C)c(C)c3)nnn2c2ccc(Cl)cc12 | inactive
CCc1ccc(S(=O)(=O)c2nnn3c2nc(NCc2ccccc2OC)c2cc(Cl)ccc23)cc1 | inactive
Cc1ccc(N2CCN(c3nc4c(S(=O)(=O)c5ccc(C)c(C)c5)nnn4c4ccccc34)CC2)c(C)c1 | inactive
CCc1ccc(S(=O)(=O)c2nnn3c2nc(N2CCN(c4ccccc4)CC2)c2cc(Cl)ccc23)cc1 | inactive
CC(=O)c1ccc(Nc2nc3c(S(=O)(=O)c4ccccc4)nnn3c3ccc(Cl)cc23)cc1 | inactive
Cc1ccc(S(=O)(=O)c2nnn3c2nc(N2CCCC(C)C2)c2cc(Cl)ccc23)cc1C (centres undefined) | inactive
NC(=O)C1CCN(c2nc3c(S(=O)(=O)c4ccc(Br)cc4)nnn3c3ccccc23)CC1 | inactive
CCN(Cc1ccccc1)c1nc2c(S(=O)(=O)c3ccc(C)c(C)c3)nnn2c2ccc(Cl)cc12 | inactive
COc1ccc(CNc2nc3c(S(=O)(=O)c4ccccc4)nnn3c3ccc(Cl)cc23)cc1 | inactive
CC(=O)c1ccc(N2CCN(c3nc4c(S(=O)(=O)c5ccc(C)c(C)c5)nnn4c4ccc(Cl)cc34)CC2)cc1 | inactive
CCOC(=O)C1CCN(c2nc3c(S(=O)(=O)c4ccc(C)c(C)c4)nnn3c3ccc(Cl)cc23)CC1 | inactive
CCc1ccc(S(=O)(=O)c2nnn3c2nc(N(C)Cc2ccccc2)c2cc(Cl)ccc23)cc1 | inactive
CCOC(=O)c1nnn2c1nc(N(CC)CC)c1ccccc12 | inactive
O=S(=O)(c1ccccc1)c1nnn2c1nc(Cl)c1ccccc12 | inactive
CCc1ccc(S(=O)(=O)c2nnn3c2nc(Nc2ccc(F)cc2)c2cc(Cl)ccc23)cc1 | inactive
CCOCCCNc1nc2c(S(=O)(=O)c3ccc(CC)cc3)nnn2c2ccc(Cl)cc12 | inactive
CCc1ccc(S(=O)(=O)c2nnn3c2nc(NCc2ccccc2)c2cc(Cl)ccc23)cc1 | inactive
COCCCNc1nc2c(S(=O)(=O)c3ccccc3)nnn2c2ccc(Cl)cc12 | inactive

SMILES | Activity
CCN(CC)c1nc2c(S(=O)(=O)c3ccccc3)nnn2c2ccccc12 | inactive
Cc1ccc(S(=O)(=O)c2nnn3c2nc(N2CCC(C)CC2)c2cc(Cl)ccc23)cc1C | inactive
COc1ccccc1N1CCN(c2nc3c(S(=O)(=O)c4ccccc4)nnn3c3ccc(Cl)cc23)CC1 | inactive
CCOC(=O)C1CCN(c2nc3c(S(=O)(=O)c4ccc(CC)cc4)nnn3c3ccc(Cl)cc23)CC1 | inactive
CCOC(=O)C1CCCN(c2nc3c(S(=O)(=O)c4ccc(C)c(C)c4)nnn3c3ccc(Cl)cc23)C1 (centres undefined) | inactive
CCOC(=O)C1CCN(c2nc3c(S(=O)(=O)c4ccccc4)nnn3c3ccc(Cl)cc23)CC1 | inactive
CCOC(=O)C1CCCN(c2nc3c(S(=O)(=O)c4ccccc4)nnn3c3ccccc23)C1 (centres undefined) | inactive
CCc1ccc(S(=O)(=O)c2nnn3c2nc(N2CCC(C)CC2)c2cc(Cl)ccc23)cc1 | inactive
Cc1ccc(S(=O)(=O)c2nnn3c2nc(N2CCN(c4ccccc4F)CC2)c2cc(Cl)ccc23)cc1C | inactive
Cc1ccc(C)c(S(=O)(=O)c2nnn3c2nc(NCCC(C)C)c2ccccc23)c1 | inactive
Cc1ccc(S(=O)(=O)c2nnn3c2nc(NCC2CCCO2)c2ccccc23)cc1 (centres undefined) | inactive
COc1ccccc1N1CCN(c2nc3c(S(=O)(=O)c4ccc(C)c(C)c4)nnn3c3ccc(Cl)cc23)CC1 | inactive
COc1ccc(Nc2nc3c(S(=O)(=O)c4ccccc4)nnn3c3ccc(Cl)cc23)cc1 | inactive
Nc1nc2c(C(=O)N3CCOCC3)nnn2c2ccccc12 | inactive
Cc1ccc(S(=O)(=O)c2nnn3c2nc(N2CCCC2)c2ccccc23)cc1 | inactive
Cc1ccc(S(=O)(=O)c2nnn3c2nc(N2CCN(c4ccc(F)cc4)CC2)c2cc(Cl)ccc23)cc1C | inactive
CCc1ccc(S(=O)(=O)c2nnn3c2nc(N2CCCC(C)C2)c2cc(Cl)ccc23)cc1 (centres undefined) | inactive
CCc1ccc(S(=O)(=O)c2nnn3c2nc(N(CC)Cc2ccccc2)c2cc(Cl)ccc23)cc1 | inactive
COCCNc1nc2c(S(=O)(=O)c3ccccc3)nnn2c2ccc(Cl)cc12 | inactive
Cc1ccc(S(=O)(=O)c2nnn3c2nc(N2CCN(c4ccccc4F)CC2)c2ccccc23)cc1C | inactive
COc1ccccc1Nc1nc2c(S(=O)(=O)c3c(C)cc(C)cc3C)nnn2c2ccccc12 | inactive
Cc1ccc(S(=O)(=O)c2nnn3c2nc(N2CCC(C(N)=O)CC2)c2cc(Cl)ccc23)cc1C | inactive
CCc1ccc(S(=O)(=O)c2nnn3c2nc(NC(C)C)c2cc(Cl)ccc23)cc1 | inactive
Cc1ccc(C)c(S(=O)(=O)c2nnn3c2nc(Nc2ccc(C)c(C)c2)c2ccccc23)c1 | inactive
CCOc1ccc(Nc2nc3c(S(=O)(=O)c4ccc(CC)cc4)nnn3c3ccc(Cl)cc23)cc1 | inactive

tested on: Staphylococcus aureus; test: Antibacterial activity against Staphylococcus aureus RN4220 assessed as cell survival at 100 uM after 12 hrs by optical density plate reader method; format: functional; settings: RN4220, 12 h

SMILES | survival at 100 µM [%]
COc1ccc(-c2c3c(=O)n(C)c(=O)n(C)c3c3n2-c2ccccc2NC3c2cc(O)ccc2O)cc1 (centres undefined) | 0
COc1ccc(-c2c3c(=O)n(C)c(=O)n(C)c3c3n2-c2ccccc2NC3c2ccccc2OC)cc1 (centres undefined) | 67
Cc1ccc(C2Nc3cc(C)c(C)cc3-n3c(-c4ccccc4)c4c(=O)n(C)c(=O)n(C)c4c32)o1 (centres undefined) | 95
Cn1c(=O)c2c(-c3ccccc3)n3c(c2n(C)c1=O)C(c1cc(Cl)ccc1O)Nc1ccccc1-3 (centres undefined) | 35
COc1ccc(-c2c3c(=O)n(C)c(=O)n(C)c3c3n2-c2ccccc2NC3c2ccco2)cc1 (centres undefined) | 57
Cc1cc2c(cc1C)-n1c(-c3ccccc3)c3c(=O)n(C)c(=O)n(C)c3c1C(c1ccco1)N2 (centres undefined) | 94

tested on: Staphylococcus aureus; test: Antibacterial activity against tarO deficient Staphylococcus aureus RN4220 assessed as cell survival at 100 uM after 12 hrs by optical density plate reader method; format: functional; settings: RN4220, 12 h

SMILES | survival at 100 µM [%]
COc1ccc(-c2c3c(=O)n(C)c(=O)n(C)c3c3n2-c2ccccc2NC3c2cc(O)ccc2O)cc1 (centres undefined) | 26
COc1ccc(-c2c3c(=O)n(C)c(=O)n(C)c3c3n2-c2ccccc2NC3c2ccccc2OC)cc1 (centres undefined) | 85
Cc1ccc(C2Nc3cc(C)c(C)cc3-n3c(-c4ccccc4)c4c(=O)n(C)c(=O)n(C)c4c32)o1 (centres undefined) | 92
Cn1c(=O)c2c(-c3ccccc3)n3c(c2n(C)c1=O)C(c1cc(Cl)ccc1O)Nc1ccccc1-3 (centres undefined) | 78
COc1ccc(-c2c3c(=O)n(C)c(=O)n(C)c3c3n2-c2ccccc2NC3c2ccco2)cc1 (centres undefined) | 69
Cc1cc2c(cc1C)-n1c(-c3ccccc3)c3c(=O)n(C)c(=O)n(C)c3c1C(c1ccco1)N2 (centres undefined) | 103
